Test results reported in ChEMBL document CHEMBL1777708, “An expeditious access to 5-pyrimidinol derivatives from cyclic methylglyoxal diadducts, formation of argpyrimidines under physiological conditions and discovery of new CFTR inhibitors” (Eur J Med Chem, 2011).
The source made the active and inactive calls. The rule behind the calls is not given here.

Assays:
[1] = Dissociation constant, pKa of the compound by spectrophotometry; assay type: physicochemical
[2] = target: Cystic fibrosis transmembrane conductance regulator (Homo sapiens) (UniProt P13569); experiment: Inhibition of wild type CFTR expressed in CHO cells by [125I]iodide efflux assay; assay type: cell-based
Chain of Cystic fibrosis transmembrane conductance regulator (Homo sapiens) (P13569 whole entry, looked up): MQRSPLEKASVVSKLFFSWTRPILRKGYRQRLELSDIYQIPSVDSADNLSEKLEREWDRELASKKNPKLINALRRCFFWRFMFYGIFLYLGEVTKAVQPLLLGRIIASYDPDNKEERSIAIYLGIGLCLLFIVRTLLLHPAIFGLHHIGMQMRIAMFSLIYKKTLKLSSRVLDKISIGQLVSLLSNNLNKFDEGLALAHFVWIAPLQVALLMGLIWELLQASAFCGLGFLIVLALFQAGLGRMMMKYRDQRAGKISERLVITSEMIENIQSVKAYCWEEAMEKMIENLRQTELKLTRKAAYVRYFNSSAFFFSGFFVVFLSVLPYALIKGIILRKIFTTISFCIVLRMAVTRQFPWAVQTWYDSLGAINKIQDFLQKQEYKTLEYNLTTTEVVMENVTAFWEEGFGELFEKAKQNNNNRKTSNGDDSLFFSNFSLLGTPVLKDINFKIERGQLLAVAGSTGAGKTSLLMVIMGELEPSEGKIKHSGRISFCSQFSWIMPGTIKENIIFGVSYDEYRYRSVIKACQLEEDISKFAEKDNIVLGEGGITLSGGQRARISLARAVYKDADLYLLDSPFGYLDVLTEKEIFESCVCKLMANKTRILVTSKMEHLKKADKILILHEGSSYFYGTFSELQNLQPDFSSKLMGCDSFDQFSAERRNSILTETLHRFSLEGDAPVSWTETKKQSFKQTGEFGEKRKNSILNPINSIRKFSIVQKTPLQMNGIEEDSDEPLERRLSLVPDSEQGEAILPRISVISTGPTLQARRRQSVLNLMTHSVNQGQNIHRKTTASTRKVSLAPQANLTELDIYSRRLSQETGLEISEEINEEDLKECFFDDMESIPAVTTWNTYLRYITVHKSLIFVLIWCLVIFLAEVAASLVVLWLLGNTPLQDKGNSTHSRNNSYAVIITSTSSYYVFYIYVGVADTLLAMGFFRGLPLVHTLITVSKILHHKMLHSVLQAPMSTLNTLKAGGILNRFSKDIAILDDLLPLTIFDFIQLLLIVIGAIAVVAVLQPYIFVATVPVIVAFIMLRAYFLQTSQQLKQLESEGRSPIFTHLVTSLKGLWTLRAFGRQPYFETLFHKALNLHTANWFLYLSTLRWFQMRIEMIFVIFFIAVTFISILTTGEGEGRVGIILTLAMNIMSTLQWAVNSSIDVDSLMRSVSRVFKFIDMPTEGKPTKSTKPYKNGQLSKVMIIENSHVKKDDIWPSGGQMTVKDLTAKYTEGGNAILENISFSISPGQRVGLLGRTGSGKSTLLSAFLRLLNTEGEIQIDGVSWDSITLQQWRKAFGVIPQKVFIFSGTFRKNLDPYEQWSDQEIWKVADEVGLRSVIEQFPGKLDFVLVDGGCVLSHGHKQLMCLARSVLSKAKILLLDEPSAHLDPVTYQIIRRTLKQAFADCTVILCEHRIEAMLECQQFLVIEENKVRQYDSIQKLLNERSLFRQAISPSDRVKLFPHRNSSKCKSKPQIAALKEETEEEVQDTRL

Structure (SMILES)	pKa [1]	inhibition [2]
Cc1nc2c3ccccc3cc[n+]2c(C)c1[O-]	4	–
C[C@]1(C(=O)O)N=C2C=CC=CN2[C@](C)(O)[C@@H]1O	–	inactive
C[C@]1(C(=O)O)N=C2C=CC=CN2[C@](C)(O)[C@H]1O	–	inactive
